Target: T1, Bisphosphoglycerate mutase (Homo sapiens, UniProt P07738)
T1 sequence (P07738 whole entry): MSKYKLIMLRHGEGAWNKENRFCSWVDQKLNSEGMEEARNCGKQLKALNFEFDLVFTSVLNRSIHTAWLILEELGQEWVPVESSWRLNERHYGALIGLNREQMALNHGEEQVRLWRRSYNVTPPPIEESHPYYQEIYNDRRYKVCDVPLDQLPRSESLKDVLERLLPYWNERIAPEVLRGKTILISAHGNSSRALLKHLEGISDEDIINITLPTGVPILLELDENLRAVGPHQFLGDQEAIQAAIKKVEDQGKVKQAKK
Assay: Inhibition of human Bis-phosphoglycerate mutase using 3-PG, GAP and NAD as substrate preincubated for 30 mins followed by substrate addition and measured after 100 mins in presence of GAPDH by resazurin reagent based fluorescence analysis

Point of comparison: `Cc1nc(COc2cccnn2)sc1-c1csc(-c2cc(F)c3[nH]nnc3c2)n1`, IC50 92 nM. Against it:
- Cc1cnc(OCc2nc(C)c(-c3cccc(-c4cc(F)c5nn[nH]c5c4F)n3)s2)nc1 — 4.4-fold lower, 21 nM
- Cc1nc(COCC(C)(C)O)sc1-c1cccc(-c2cc(F)c3nn[nH]c3c2F)n1 — 4.8-fold lower, 19 nM
- Cc1nc(COc2ncccn2)sc1-c1cccc(-c2ccc(-c3noc(=O)[nH]3)cc2)n1 — 1.5-fold higher, 138 nM
- Cc1nc(COc2ncccn2)sc1-c1csc(-c2cc(F)c(O)c(F)c2F)n1 — 1.7-fold higher, 159 nM

— ChEMBL document CHEMBL5131548, “Novel Bis-phosphoglycerate Mutase Modulators for Treating Sickle Cell Disease” (ACS Med Chem Lett, 2022)
